Our source for the EC50 values is patent US7238670B2, “Human glucagon-like-peptide-1 mimics and their use in the treatment of diabetes and related conditions” (Bristol-Myers Squibb Company, priority 2001, dated 2007).

The target in the assay is T1, human glucagon-like peptide 1 receptor (Homo sapiens, UniProt P43220).
T1 construct: Full-length human glucagon-like peptide 1 receptor was stably expressed in CHO-K1 cells; expressed in transfected cells; host or cells: CHO-K1 (clone CHO-GLP1R-19)
Description: Cyclic AMP determination in CHO-K1 cells stably expressing the GLP-1 receptor (cAMP SPA). It is filed as cell-based. Particulars: CHO-GLP1R-19 cells, read-out: EC50, stimulation of cAMP production. The protocol:
CHO-GLP-1R-19 cells (2,500 in 100 μl of media) were plated into each well of a 96-well tissue culture microtiter plate and incubated in 5% CO2 atmosphere at 37° C., for 72 h. On the day of the assay, cells were washed once with 100 μl of PBS. […] After incubation at room temperature for 15-18 h, plates were counted 2 min each/well in a TopCount NXT(Packard).
The data obtained was processed in Excel-fit database. From a cyclic AMP standard curve, the amounts of released cAMP were determined and the % maximal activity was calculated and plotted against log compound concentration. The data was analyzed by nonlinear regression curve fit (sigmoidal dose) to determine the EC50 of the compounds.
In general terms: Cyclic AMP is a second messenger, typically raised through Gs and lowered through Gi signalling.

Structures are written as SMILES. Where two headings read alike, the source gives them in different places.

T1 sequence (P43220 24-463): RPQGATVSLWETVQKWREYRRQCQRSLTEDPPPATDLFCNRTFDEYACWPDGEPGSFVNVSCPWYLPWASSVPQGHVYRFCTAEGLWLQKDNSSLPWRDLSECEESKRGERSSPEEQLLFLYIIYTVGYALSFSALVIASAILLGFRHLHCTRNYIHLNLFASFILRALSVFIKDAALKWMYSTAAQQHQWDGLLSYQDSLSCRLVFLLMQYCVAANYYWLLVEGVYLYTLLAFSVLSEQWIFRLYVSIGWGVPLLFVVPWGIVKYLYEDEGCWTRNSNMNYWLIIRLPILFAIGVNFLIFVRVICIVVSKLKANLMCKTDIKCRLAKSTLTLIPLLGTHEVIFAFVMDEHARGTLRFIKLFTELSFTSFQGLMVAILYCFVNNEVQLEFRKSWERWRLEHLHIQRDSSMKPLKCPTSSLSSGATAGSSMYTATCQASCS

As a reminder, the EC50 is the concentration that produces a half-maximal response. `C[C@H](NC(=O)[C@@H](N)Cc1c[nH]cn1)C(=O)N[C@@H](CCC(=O)O)C(=O)NCC(=O)N[C@H](C(=O)N[C@@H](Cc1ccccc1)C(=O)N[C@H](C(=O)N[C@@H](CO)C(=O)N[C@@H](CC(=O)O)C(N)=O)[C@@H](C)O)[C@@H](C)O`: where the note is “same assay”, the EC50 is more than 1000 µM.
As for `C[C@H](NC(=O)[C@@H](N)Cc1cnc[nH]1)C(=O)N[C@@H](CCC(=O)O)C(=O)NCC(=O)N[C@H](C(=O)N[C@@H](Cc1ccccc1)C(=O)N[C@H](C(=O)N[C@@H](CO)C(=O)N[C@@H](CC(=O)O)C(=O)N[C@@H](Cc1ccc(-c2ccccc2)cc1)C(=O)N[C@@H](Cc1ccc(-c2ccccc2)cc1)C(N)=O)[C@@H](C)O)[C@@H](C)O` [GLP-1 11-mer peptide analog, His-Ala-Clu-Gly-Thr-Phe-Thr-Ser-Asp-Bip-Bip-NH2], under “determined as in Example 13”, the half-maximal effective concentration (EC50) was determined as 1.1 µM.
